Where two headings read alike, the source gives them in different places.
Assays:
HCT116 cells = assay: Growth inhibition assay (MTS); format: cell-based; settings: Homo sapiens, Table 5, HCT116 cells, 48 hours treatment, MTS, read-out: Growth Inhibition (GI50, uM) HCT116
Method: (§1) SW480 or HCT116 cells were placed into 96 well microplate (10^4cells/well) and incubated for 24 hours at 37° C. 20 μl of [3-(4,5-dimethylthiazol-2-yl)-5-(3-carboxyphenyl)-2-(4-sulfophenyl)-2H-tetrazolium, inner salt](MTS) solution (Promega) was added into each well and the absorbance after 2 hour incubation at 37° C. (negative control) was read. And then, the cells were treated with TCF4 compound at various concentrations for 48 hours. 20 μl of MTS solution (Promega) was added into each well and incubated for 2 hour at 37° C. Cell viability was measured by reading the absorbance at 490 nm using a microplate reader (Molecular device) and cytotoxicity of a compound at each concentration was calculated.
as §1, with “a test” for “TCF4”

SW480 cells = assay: Growth inhibition assay (MTS); format: cell-based; settings: Homo sapiens, Table 5, SW480 cells, 48 hours treatment, MTS, read-out: Growth Inhibition (GI50, uM) SW480
Method: as §1
as §1, with “a test” for “TCF4”

Structure (SMILES) | GI50 (HCT116 cells; HCT-116, 48 h) [µM] | GI50 (SW480 cells; SW480, 48 h) [µM] | GI50 (HCT116 cells; HCT-116) [µM] | GI50 (SW480 cells) [µM]
O=C1[C@H](Cc2ccc(O)cc2)N2C(=O)CON(C(=O)NCc3ccccc3)[C@H]2CN1Cc1cccc2cccnc12 [Compound 92] | 14.9 ± 2.2 | 12.9 ± 1 |  | 
CCN1CC(=O)N2[C@@H](Cc3ccc(O)cc3)C(=O)N(Cc3cccc4cccnc34)C[C@@H]2N1C(=O)NCc1ccccc1 [Compound 93] | 1.1 ± 0.1 | 1.9 ± 0.4 |  | 
CCCN1CC(=O)N2[C@@H](Cc3ccc(O)cc3)C(=O)N(Cc3cccc4cccnc34)C[C@@H]2N1C(=O)NCc1ccccc1 [Compound 94] | 0.7 ± 0.07 | 1.1 ± 0.3 |  | 
CCN1CC(=O)N2[C@@H](Cc3ccc(O)cc3)C(=O)N(Cc3cccc(N4CCOCC4)c3)C[C@@H]2N1C(=O)NCc1ccccc1 [Compound 95] | 7.1 ± 1.2 | 16.2 ± 2.6 |  | 
CCCN1CC(=O)N2[C@@H](Cc3ccc(O)cc3)C(=O)N(Cc3cccc(N4CCOCC4)c3)C[C@@H]2N1C(=O)NCc1ccccc1 [Compound 96] | 3.4 ± 0.4 | 3.7 ± 0.4 |  | 
CCN1CC(=O)N2[C@@H](Cc3ccc(O)cc3)C(=O)N(Cc3ccc(Cl)c(N(C)C)c3)C[C@@H]2N1C(=O)NCc1ccccc1 [Compound 97] | 5.2 ± 0.5 | 7.1 ± 1 |  | 
CCCN1CC(=O)N2[C@@H](Cc3ccc(O)cc3)C(=O)N(Cc3ccc(Cl)c(N(C)C)c3)C[C@@H]2N1C(=O)NCc1ccccc1 [Compound 98] | 4.4 ± 0.5 | 7 ± 1.1 |  | 
C=CCN1CC(=O)N2[C@@H](Cc3ccc(O)cc3)C(=O)N(Cc3cccc(N4CCOCC4)c3)C[C@@H]2N1C(=O)NCc1ccccc1 [Compound 99] | 0.7 ± 0.1 | 1 ± 0.05 |  | 
C=CCN1CC(=O)N2[C@@H](Cc3ccc(O)cc3)C(=O)N(Cc3cccc4cccnc34)C[C@@H]2N1C(=O)NCc1ccccc1 [Compound 100] | 0.4 ± 0.1 | 0.3 ± 0.03 |  | 
C=CCN1CC(=O)N2[C@@H](Cc3ccc(O)cc3)C(=O)N(Cc3ccc(Cl)c(N(C)C)c3)C[C@@H]2N1C(=O)NCc1ccccc1 [Compound 101] | 0.9 ± 0.1 | 1.1 ± 0.07 |  | 
CN1CC(=O)N2[C@@H](Cc3ccc(O)cc3)C(=O)N(Cc3cccc(OCCN4CCOCC4)c3)C[C@@H]2N1C(=O)NCc1ccccc1 [Compound 102] | 4.9 ± 1.2 | 2.5 ± 0.4 |  | 
C=CCN1CC(=O)N2[C@@H](Cc3ccc(O)cc3)C(=O)N(Cc3cccc(OCCN4CCOCC4)c3)C[C@@H]2N1C(=O)NCc1ccccc1 [Compound 104] | < 0.4 | < 0.4 |  | 
C=CCN1CC(=O)N2[C@@H](Cc3ccc(O)cc3)C(=O)N(Cc3ccc(C)c(N4CCOCC4)c3)C[C@@H]2N1C(=O)NCc1ccccc1 [Compound 105] | 2.1 ± 0.3 | 2.8 ± 0.2 |  | 
C#CCN1CC(=O)N2[C@@H](Cc3ccc(O)cc3)C(=O)N(Cc3ccc(C)c(N4CCOCC4)c3)C[C@@H]2N1C(=O)NCc1ccccc1 [Compound 106] | 2.8 ± 0.4 | 4.5 ± 0.3 |  | 
C#CCN1CC(=O)N2[C@@H](Cc3ccc(O)cc3)C(=O)N(Cc3ccc4c(c3)OCCO4)C[C@@H]2N1C(=O)NCc1ccccc1 [Compound 107] | 1.6 ± 0.1 | 1.6 ± 0.1 |  | 
C=CCN1CC(=O)N2[C@@H](Cc3ccc(O)cc3)C(=O)N(Cc3ccc4[nH]nnc4c3)C[C@@H]2N1C(=O)NCc1ccccc1 [Compound 108] | 37.9 ± 5.7 | 24.9 ± 2.2 |  | 
C=CCN1CC(=O)N2[C@@H](Cc3ccc(O)cc3)C(=O)N(Cc3ccc(Cl)c4cccnc34)C[C@@H]2N1C(=O)NCc1ccccc1 [Compound 109] | 1.1 ± 0.1 | 1.3 ± 0.3 |  | 
C#CCN1CC(=O)N2[C@@H](Cc3ccc(O)cc3)C(=O)N(Cc3ccc(Cl)c4cccnc34)C[C@@H]2N1C(=O)NCc1ccccc1 [Compound 110] | 1.9 ± 0.1 | 2.1 ± 0.3 |  | 
C=CCN1CC(=O)N2[C@@H](Cc3ccc(O)cc3)C(=O)N(Cc3ccc(Cl)c(N4CCOCC4)c3)C[C@@H]2N1C(=O)NCc1ccccc1 [Compound 111] | 2.1 ± 0.2 | 2.7 ± 0.8 |  | 
C#CCN1CC(=O)N2[C@@H](Cc3ccc(O)cc3)C(=O)N(Cc3ccc(Cl)c(N4CCOCC4)c3)C[C@@H]2N1C(=O)NCc1ccccc1 [Compound 112] | 4.7 ± 0.3 | 5.1 ± 0.5 |  | 
C#CCN1CC(=O)N2[C@@H](Cc3ccc(O)cc3)C(=O)N(Cc3ccc4ncsc4c3)C[C@@H]2N1C(=O)NCc1ccccc1 [Compound 113] | 3.7 ± 0.6 | 6.8 ± 1.4 |  | 
C=CCN1CC(=O)N2[C@@H](Cc3ccc(O)cc3)C(=O)N(Cc3ccc4ncsc4c3)C[C@@H]2N1C(=O)NCc1ccccc1 [Compound 114] | 1.9 ± 0.2 | 1.7 ± 0.7 |  | 

Structure (SMILES) | GI50 (HCT116 cells; HCT-116, 48 h) [µM] | GI50 (SW480 cells; SW480, 48 h) [µM] | GI50 (HCT116 cells; HCT-116) [µM] | GI50 (SW480 cells) [µM]
C#CCN1CC(=O)N2[C@@H](Cc3ccc(O)cc3)C(=O)N(Cc3ccc(F)cc3F)C[C@@H]2N1C(=O)NCc1ccccc1 [Compound 116] | 1.7 ± 0.1 | 2.8 ± 0.9 |  | 
C=CCN1CC(=O)N2[C@@H](Cc3ccc(O)cc3)C(=O)N(Cc3cccc4c3N(C)CCO4)C[C@@H]2N1C(=O)NCc1ccccc1 [Compound 117] | 0.3 ± 0.02 | 0.6 ± 0.1 |  | 
C#CCN1CC(=O)N2[C@@H](Cc3ccc(O)cc3)C(=O)N(Cc3ccc4c(c3)OCCN4C)C[C@@H]2N1C(=O)NCc1ccccc1 [Compound 118] | 23.2 ± 2.8 | 21.2 ± 1.5 |  | 
C=CCN1CC(=O)N2[C@@H](Cc3ccc(O)cc3)C(=O)N(Cc3ccc4c(c3)OCCN4C)C[C@@H]2N1C(=O)NCc1ccccc1 [Compound 119] | 9.5 ± 1.1 | 10 ± 1.3 |  | 
CCCN1CC(=O)N2[C@@H](Cc3ccc(O)cc3)C(=O)N(Cc3ccc(Cl)c4cccnc34)C[C@@H]2N1C(=O)NCc1ccccc1 [Compound 120] | 2.6 ± 0.1 | 1.8 ± 0.2 |  | 
CN1CC(=O)N2[C@@H](Cc3ccc(O)cc3)C(=O)N(Cc3cccc(N4CCCC4=O)c3)C[C@@H]2N1C(=O)NCc1ccccc1 [Compound 121] | 13.1 ± 0.6 | 8.2 ± 0.5 |  | 
C=CCN1CC(=O)N2[C@@H](Cc3ccc(O)cc3)C(=O)N(Cc3cccc(N4CCCC4)c3)C[C@@H]2N1C(=O)NCc1ccccc1 [Compound 125] | 1.9 ± 0.2 | 2.2 ± 0.3 |  | 
C=CCN1CC(=O)N2[C@@H](Cc3ccc(O)cc3)C(=O)N(Cc3cc(N(C)C(C)C)cc(C(F)(F)F)c3)C[C@@H]2N1C(=O)NCc1ccccc1 [Compound 126] | 11.6 ± 3 | 19.4 ± 3 |  | 
CCCN1CC(=O)N2[C@@H](Cc3ccc(O)cc3)C(=O)N(Cc3ccc(F)cc3F)C[C@@H]2N1C(=O)NCc1ccccc1 [Compound 127] | 4.3 ± 0.7 | 4.9 ± 0.7 |  | 
C=CCN1CC(=O)N2[C@@H](Cc3ccc(O)cc3)C(=O)N(Cc3cccc4c3OCCN4C)C[C@@H]2N1C(=O)NCc1ccccc1 [Compound 128] | 1 ± 0.03 | 0.9 ± 0.1 |  | 
C=CCN1CC(=O)N2[C@@H](Cc3ccc(NC=O)cc3)C(=O)N(Cc3ccc(F)cc3F)C[C@@H]2N1C(=O)NCc1ccccc1 [Compound 129] | 3.1 ± 0.3 | 2.9 ± 0.5 |  | 
CCCN1CC(=O)N2[C@@H](Cc3ccc(NC=O)cc3)C(=O)N(Cc3ccc(F)cc3F)C[C@@H]2N1C(=O)NCc1ccccc1 [Compound 130] | 10.7 ± 1.7 | 17.3 ± 1.2 |  | 
C=CCN1CC(=O)N2[C@@H](Cc3ccc(OP(=O)(O)O)cc3)C(=O)N(Cc3ccc(Cl)c(N(C)C)c3)C[C@@H]2N1C(=O)NCc1ccccc1 [Compound 131] |  |  | 1.7 ± 0.5 | 2.3 ± 0.1
C=CCN1CC(=O)N2[C@@H](Cc3ccc(O)cc3)C(=O)N(Cc3cc(F)c(F)cc3N(C)C)C[C@@H]2N1C(=O)NCc1ccccc1 [Compound 132] | 2.2 ± 1.2 | 2.5 ± 0.1 |  | 
C=CCN1CC(=O)N2[C@@H](Cc3ccc(OP(=O)(O)O)cc3)C(=O)N(Cc3cc(F)c(F)cc3N(C)C)C[C@@H]2N1C(=O)NCc1ccccc1 [Compound 133] |  |  | 2.1 ± 1.8 | 2.3 ± 0.1
C=CCN1CC(=O)N2[C@@H](Cc3ccc(O)cc3)C(=O)N(Cc3ccccc3)C[C@@H]2N1C(=O)NCc1ccccc1 [Compound 134] | 0.8 ± 0.7 | 1.4 ± 0.4 |  | 
[2H]C([2H])(c1ccc(O)cc1)[C@H]1C(=O)N(Cc2cccc3ccccc23)C[C@H]2N1C(=O)CN(C)N2C(=O)NCc1ccccc1 [Compound 135] | 3.1 ± 0.8 | 3.2 ± 0.4 |  | 
[2H]c1cc(C[C@H]2C(=O)N(Cc3cccc4ccccc34)C[C@H]3N2C(=O)CN(C)N3C(=O)NCc2ccccc2)cc([2H])c1O [Compound 136] | 3 ± 0.9 | 3.4 ± 0.4 |  | 
C=CCN1CC(=O)N2[C@@H](Cc3ccc(O)cc3)C(=O)N(Cc3cc(C)cc4c3N(C)CCO4)C[C@@H]2N1C(=O)NCc1ccccc1 [Compound 137] | 1.3 ± 0.3 | 1.4 ± 0.4 |  | 
CCCN1CC(=O)N2[C@@H](Cc3ccc(O)cc3)C(=O)N(Cc3ccccc3)C[C@@H]2N1C(=O)NCc1ccccc1 [Compound 138] | 3.9 ± 0.7 | 4 ± 0.4 |  | 
C=CCN1CC(=O)N2[C@@H](Cc3ccc(OP(=O)(O)O)cc3)C(=O)N(Cc3cccc4c3OCCN4C)C[C@@H]2N1C(=O)NCc1ccccc1 [Compound 139] |  |  | 1 ± 0.2 | 1.2 ± 0.1
C=CCN1CC(=O)N2C(Cc3ccc(O)cc3)C(=O)N(Cc3ccc(F)cc3F)CC2N1C(=O)NCc1ccccc1 (stereo not shown) [Compound 140] | 1.7 ± 0.1 | 1.6 ± 0.5 |  | 
